Drawing on patent publication US9920035B2, “Heterocyclic compounds, medicaments containing said compounds, use thereof and processes for the preparation thereof” (Boehringer Ingelheim International GmbH, priority 2011, dated 2018), this text covers IC50 for 28 compounds.

One may read the IC50 as the concentration that gives 50% inhibition. Higher therefore signals weaker potency.

This test addresses T1, epithelial sodium channel (ENaC) (Mus musculus, UniProt Q61180+Q9WU38+Q9WU39).
T1 construct: Mouse kidney M-1 cells were cultivated in DMEM containing 5% FCS and 5 μM dexamethasone; endogenous in cells; host or cells: mouse kidney M-1 cells
T1 sequence (Q61180 1-699): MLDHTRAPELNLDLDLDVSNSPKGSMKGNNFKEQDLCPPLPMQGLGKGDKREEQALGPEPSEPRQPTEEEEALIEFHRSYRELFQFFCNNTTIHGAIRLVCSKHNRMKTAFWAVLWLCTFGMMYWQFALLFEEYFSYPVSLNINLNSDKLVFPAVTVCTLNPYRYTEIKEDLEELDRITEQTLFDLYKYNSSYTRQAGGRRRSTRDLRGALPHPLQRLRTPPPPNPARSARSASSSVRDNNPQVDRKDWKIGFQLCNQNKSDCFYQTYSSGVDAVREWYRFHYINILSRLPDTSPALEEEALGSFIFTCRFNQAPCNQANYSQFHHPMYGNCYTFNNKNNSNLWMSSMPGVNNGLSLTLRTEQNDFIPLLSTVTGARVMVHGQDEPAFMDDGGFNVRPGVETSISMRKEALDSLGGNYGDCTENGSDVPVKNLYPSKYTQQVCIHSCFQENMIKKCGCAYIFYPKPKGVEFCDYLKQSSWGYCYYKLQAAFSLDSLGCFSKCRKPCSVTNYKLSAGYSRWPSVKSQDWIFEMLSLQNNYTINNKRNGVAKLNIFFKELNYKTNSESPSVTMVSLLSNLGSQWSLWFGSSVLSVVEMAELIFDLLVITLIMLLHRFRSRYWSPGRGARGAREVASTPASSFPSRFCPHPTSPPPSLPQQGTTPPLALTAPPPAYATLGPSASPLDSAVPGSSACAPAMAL
T1 sequence (Q9WU38 1-638): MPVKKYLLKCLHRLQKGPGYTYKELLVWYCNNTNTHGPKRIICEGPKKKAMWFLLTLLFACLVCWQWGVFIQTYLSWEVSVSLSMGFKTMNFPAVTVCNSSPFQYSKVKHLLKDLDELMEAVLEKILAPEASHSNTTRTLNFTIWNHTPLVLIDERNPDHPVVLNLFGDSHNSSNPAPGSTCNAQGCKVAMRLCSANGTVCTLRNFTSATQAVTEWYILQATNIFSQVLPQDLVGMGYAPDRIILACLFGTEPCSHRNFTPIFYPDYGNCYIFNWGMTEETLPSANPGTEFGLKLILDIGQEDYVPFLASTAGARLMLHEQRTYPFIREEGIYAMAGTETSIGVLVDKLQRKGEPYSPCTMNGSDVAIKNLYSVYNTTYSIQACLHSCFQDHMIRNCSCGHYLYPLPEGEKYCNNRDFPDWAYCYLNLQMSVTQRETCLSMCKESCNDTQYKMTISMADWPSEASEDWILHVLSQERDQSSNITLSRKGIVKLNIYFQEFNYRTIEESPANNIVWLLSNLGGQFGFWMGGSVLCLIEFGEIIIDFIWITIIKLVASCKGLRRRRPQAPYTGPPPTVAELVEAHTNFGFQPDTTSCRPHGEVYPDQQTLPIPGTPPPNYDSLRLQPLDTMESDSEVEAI
T1 sequence (Q9WU39 1-655): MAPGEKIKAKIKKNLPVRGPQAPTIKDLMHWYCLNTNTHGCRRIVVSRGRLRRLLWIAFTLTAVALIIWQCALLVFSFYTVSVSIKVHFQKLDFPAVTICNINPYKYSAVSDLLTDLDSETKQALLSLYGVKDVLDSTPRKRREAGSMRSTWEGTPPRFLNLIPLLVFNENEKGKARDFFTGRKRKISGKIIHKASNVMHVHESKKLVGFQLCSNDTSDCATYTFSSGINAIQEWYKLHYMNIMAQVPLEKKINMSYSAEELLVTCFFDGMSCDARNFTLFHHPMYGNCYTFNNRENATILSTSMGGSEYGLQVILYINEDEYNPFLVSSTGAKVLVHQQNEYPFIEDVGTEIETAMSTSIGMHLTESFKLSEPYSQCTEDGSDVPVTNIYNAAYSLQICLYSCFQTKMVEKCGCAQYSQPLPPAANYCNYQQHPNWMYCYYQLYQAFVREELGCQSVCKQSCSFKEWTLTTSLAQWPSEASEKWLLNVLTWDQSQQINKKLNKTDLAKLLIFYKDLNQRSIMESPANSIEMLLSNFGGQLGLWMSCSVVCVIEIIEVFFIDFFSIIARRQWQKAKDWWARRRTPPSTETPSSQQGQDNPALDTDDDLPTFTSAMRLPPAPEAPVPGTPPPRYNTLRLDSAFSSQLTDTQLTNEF
The experiment in a line: Ussing chamber: inhibition of amiloride sensitive short circuit current (I_sc) in M-1 cells. To be noted: Mouse kidney M-1 cells on transwell filters, Ussing chamber at 37° C., compound added to the apical solution. It counts as cell-based. As for the experimental part: Mouse kidney M-1 cells were cultivated in DMEM containing 5% FCS and 5 μM dexamethasone for 10 to 12 days on polyester transwell filters. Filters were inserted into a teflon-coated well-plate which fit into the in-house ussing chamber system. Prior to measurement the medium of M-1 cells was replaced with Caco-2 transport buffer (Invitrogen, Germany). During measurements, the Ussing chamber temperature was kept at 37° C. Short circuit currents (I_sc) were measured in the voltage-clamp mode using an in-house built amplifier (Boehringer Ingelheim, Biberach) with the software package Lab View for data acquisition and analysis. The transepithelial electrical resistance (TEER) was determined by the application of voltage steps of ±5 mV every 5 sec. Compounds were administered at a final concentration of 3 μM or at increasing concentrations (1-3-10 μM) to the apical solution. At the end of each experiment the amiloride sensitive I_SC was measured by adding 3 μM amiloride to the apical compartment. Results are expressed as inhibition in percent of the amiloride effect or as IC50. Results are listed in tables 1 to 5 and further examples listed above.

In turn, `CN(C)CC(=O)N1CCC(CCc2ccccc2)(CNC(=N)NC(=O)c2nc(Cl)c(N)nc2N)CC1` [Example 1.48] came in with an IC50 of 130 nM.

`C[N+](C)(C)CC(=O)N1CCC(CCc2ccccc2)(CNC(N)=NC(=O)c2nc(Cl)c(N)nc2N)CC1` [Example 1.49] registered an IC50 of 22 nM.

Take `C[N+](C)(C)CCCC(=O)N1CCC(CCc2ccccc2)(CNC(N)=NC(=O)c2nc(Cl)c(N)nc2N)CC1` [Example 1.50]: the IC50 stood at 15 nM.

In the case of `CN1CCN(C(=O)N2CCC(CCc3ccccc3)(CN/C(N)=N/C(=O)c3nc(Cl)c(N)nc3N)CC2)CC1` [Example 1.53], 14 nM corresponded to half-maximal inhibition (IC50).

`COC(=O)c1ccc(CCC2(CNC(N)=NC(=O)c3nc(Cl)c(N)nc3N)CCNCC2)cc1` [Example 2.1] had an IC50 of 394 nM.

In the case of `NCCC(=O)N1CCC(CCc2ccccc2)(CNC(N)=NC(=O)c2nc(Cl)c(N)nc2N)CC1` [Example 2.2], it took 19 nM to reach half-maximal inhibition (IC50).

On to `NCCCCC(=O)N1CCC(CCc2ccccc2)(CNC(N)=NC(=O)c2nc(Cl)c(N)nc2N)CC1` [Example 2.3], for which the IC50 came out at 23 nM.

Consider `NCCCN1CCC(CCc2ccccc2)(CNC(N)=NC(=O)c2nc(Cl)c(N)nc2N)CC1` [Example 2.5], for which the IC50 came to 65 nM.

In turn, `NCCCNC(=O)N1CCC(CCc2ccccc2)(CNC(N)=NC(=O)c2nc(Cl)c(N)nc2N)CC1` [Example 2.6] had an IC50 of 28 nM.

In the case of `NCCNC(=O)N1CCC(CCc2ccccc2)(CNC(N)=NC(=O)c2nc(Cl)c(N)nc2N)CC1` [Example 2.7], half-maximal inhibition (IC50) was put at 16 nM.

As for `NCCCCC(=O)N1CCC(CNC(N)=NC(=O)c2nc(Cl)c(N)nc2N)(Cc2ccccc2)CC1` [Example 2.8], the half-inhibitory concentration (IC50) came to 61 nM.

For the compound `NCCC(=O)N1CCC(CNC(N)=NC(=O)c2nc(Cl)c(N)nc2N)(Cc2ccccc2)CC1` [Example 2.9], half-maximal inhibition (IC50) was put at 93 nM.

For `COc1ccccc1C1(CNC(N)=NC(=O)c2nc(Cl)c(N)nc2N)CCNCC1` [Example 2.10], the IC50 amounted to 200 nM.

`NC(=NC(=O)c1nc(Cl)c(N)nc1N)NCC1(Cc2ccccc2)CCNCC1` [Example 2.11] gave an IC50 of 55 nM.

The compound `NCCNC(=O)N1CCC(CNC(N)=NC(=O)c2nc(Cl)c(N)nc2N)(Cc2ccccc2)CC1` [Example 2.12] returned an IC50 of 17 nM.

`NCCCNC(=O)N1CCC(CNC(N)=NC(=O)c2nc(Cl)c(N)nc2N)(Cc2ccccc2)CC1` [Example 2.13]: the IC50 came out at 25 nM.

Turning to `NCCCN1CCC(CNC(N)=NC(=O)c2nc(Cl)c(N)nc2N)(Cc2ccccc2)CC1` [Example 2.14], the half-inhibitory concentration (IC50) was found to be 120 nM.

In turn, `NC(=NC(=O)c1nc(Cl)c(N)nc1N)NCC1(CCc2ccccc2)CCN(C(=O)CCC(=O)O)CC1` [Example 3.1] yielded a 50% inhibitory concentration (IC50) of 40 nM.

`NC(=NC(=O)c1nc(Cl)c(N)nc1N)NCC1(CCc2ccccc2)CCN(C(=O)NCCC(=O)O)CC1` [Example 3.2]: half-maximal inhibition (IC50) required 149 nM.

In turn, `NC(=NC(=O)c1nc(Cl)c(N)nc1N)NCC1(CCc2ccccc2)CCN(C(=O)NCC(=O)O)CC1` [Example 3.3] returned an IC50 of 10.1 nM.

On to `N=C(N)NCCC(=O)N1CCC(CCc2ccccc2)(CNC(N)=NC(=O)c2nc(Cl)c(N)nc2N)CC1` [Example 4.1], for which 12 nM corresponded to half-maximal inhibition (IC50).

For the compound `N=C(N)NCCCCC(=O)N1CCC(CCc2ccccc2)(CNC(N)=NC(=O)c2nc(Cl)c(N)nc2N)CC1` [Example 4.2], the IC50 was found to be 18 nM.

`C[N+](C)(C)CCCNC(=O)N1CCC(CCc2ccccc2)(CNC(N)=NC(=O)c2nc(Cl)c(N)nc2N)CC1` [Example 5.1] gave an IC50 of 27 nM.

The compound `COC(=O)c1ccc(CCC2(CNC(N)=NC(=O)c3nc(Cl)c(N)nc3N)CCN(C(=O)NCC[N+](C)(C)C)CC2)cc1` [Example 5.2] yielded an IC50 of 74 nM.

In turn, `C[N+]1(C)CCC(NC(=O)N2CCC(CCc3ccccc3)(CNC(N)=NC(=O)c3nc(Cl)c(N)nc3N)CC2)CC1` [Example 5.5] yielded an IC50 of 52 nM.

Turning to `N/C(=N\C(=O)c1nc(Cl)c(N)nc1N)NCC1(CCc2ccccc2)CCN(C(=O)NCCCCCCNC(=O)N2CCC(CCc3ccccc3)(CN/C(N)=N/C(=O)c3nc(Cl)c(N)nc3N)CC2)CC1` [Example 6.1], the IC50 worked out at 97 nM.

`COC(=O)CCC(=O)N1CCC(CCc2ccccc2)(CN/C(N)=N/C(=O)c2nc(Br)c(N)nc2N)CC1` [Example 10, 4-{4-[N′-(3,5-Diamino-6-bromo-pyrazine-2-carbonyl)-guanidinomethyl]-4-phenethyl-piperidin-1-yl}-4-oxo-butyric acid methyl ester] had an IC50 of 32 nM.

Take `N/C(=N\C(=O)c1nc(Br)c(N)nc1N)NCC1(CCc2ccccc2)CCN(C(=O)CCC(=O)O)CC1` [Example 11, 4-{4-[N′-(3,5-Diamino-6-bromo-pyrazine-2-carbonyl)-guanidinomethyl]-4-phenethyl-piperidin-1-yl}-4-oxo-butyric acid]: the IC50 is 502 nM.
